In ChEMBL document CHEMBL1201862, “PubChem BioAssay data set” (2004):
Where “and” joins values, the source holds several entries; their conditions need not be identical. Equal values may be shown once.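 Interpolation was linear, between the two tested concentrations surrounding the appropriate level; five concentrations were tested over 48 hours in 96-well plates. At the GI50, growth is halved.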 Calls of active or inactive are those of the source. No stated cut-off is given here; in the data, active = GI50 up to about 1.1 µM and inactive = higher.

Legend:
Assay in all cases: NCI anticancer screen, dose series, 48 h
HCT-116 = test system: HCT-116
HCT-15 = test system: HCT-15
SNB-75 = test system: SNB-75
UACC-257 = test system: UACC-257
SW-620 = test system: SW-620
NCI-H522 = test system: NCI-H522
MDA-MB-231 = test system: MDA-MB-231
SNB-19 = test system: SNB-19
SK-OV-3 = test system: SK-OV-3
T47D = test system: T47D
SK-MEL-28 = test system: SK-MEL-28
SF-539 = test system: SF-539
NCI-H23 = test system: NCI-H23
EKVX = test system: EKVX
OVCAR-3 = test system: OVCAR-3
IGROV-1 = test system: IGROV-1
SF-268 = test system: SF-268
HOP-62 = test system: HOP-62
BT-549 = test system: BT-549
CAKI-1 = test system: CAKI-1
OVCAR-4 = test system: OVCAR-4
SF-295 = test system: SF-295
SN12C = test system: SN12C
U-251 = test system: U-251
SK-MEL-2 = test system: SK-MEL-2
NCI/ADR-RES = test system: NCI/ADR-RES
NCI-H460 = test system: NCI-H460
HT-29 = test system: HT-29
MDA-MB-435 = test system: MDA-MB-435
KM12 = test system: KM12
HL-60 = test system: HL-60
MCF7 = test system: MCF7
PC-3 = test system: PC-3
SR = test system: SR
TK-10 = test system: TK-10
A498 = test system: A498
A549 = test system: A549
Malme-3M = test system: Malme-3M
RXF 393 = test system: RXF 393
CCRF-CEM = test system: CCRF-CEM
SK-MEL-5 = test system: SK-MEL-5
MOLT-4 = test system: MOLT-4
786-0 = test system: 786-0
MDA-N = test system: MDA-N
NCI-H226 = test system: NCI-H226
ACHN = test system: ACHN
LOX IMVI = test system: LOX IMVI
DU-145 = test system: DU-145
M14 = test system: M14
UO-31 = test system: UO-31
OVCAR-8 = test system: OVCAR-8
OVCAR-5 = test system: OVCAR-5
K562 = test system: K562
COLO 205 = test system: COLO 205
Hs-578T = test system: Hs-578T
RPMI-8226 = test system: RPMI-8226
HOP-92 = test system: HOP-92
UACC-62 = test system: UACC-62
HCC 2998 = test system: HCC 2998

COc1nc(N)c(/N=C/C(OC(C)=O)C(OC(C)=O)C(COC(C)=O)OC(C)=O)c(=O)n1C (configuration not stated)
GI50 (HCT-116): > 100 µM (inactive) | GI50 (HCT-15): > 100 µM | GI50 (SNB-75): > 100 µM (inactive) | GI50 (UACC-257): > 100 µM (inactive) | GI50 (SW-620): > 100 µM (inactive) | GI50 (NCI-H522): > 100 µM (inactive) | GI50 (MDA-MB-231): > 100 µM (inactive) | GI50 (SNB-19): > 100 µM (inactive) | GI50 (SK-OV-3): > 100 µM (inactive) | GI50 (T47D): > 100 µM (inactive) | GI50 (SK-MEL-28): > 100 µM (inactive) | GI50 (SF-539): > 100 µM (inactive) | GI50 (NCI-H23): > 100 µM (inactive) | GI50 (EKVX): > 100 µM (inactive) | GI50 (OVCAR-3): > 100 µM (inactive) | GI50 (IGROV-1): > 100 µM (inactive) | GI50 (SF-268): > 100 µM (inactive) | GI50 (HOP-62): > 100 µM (inactive) | GI50 (BT-549): > 100 µM (inactive) | GI50 (CAKI-1): > 100 µM (inactive) | GI50 (OVCAR-4): > 100 µM (inactive) | GI50 (SF-295): > 100 µM (inactive) | GI50 (SN12C): > 100 µM (inactive) | GI50 (U-251): > 100 µM (inactive) | GI50 (SK-MEL-2): > 100 µM (inactive) | GI50 (NCI/ADR-RES): > 100 µM (inactive) | GI50 (NCI-H460): > 100 µM (inactive) | GI50 (HT-29): > 100 µM (inactive) | GI50 (MDA-MB-435): > 100 µM (inactive) | GI50 (KM12): > 100 µM (inactive) | GI50 (HL-60): > 100 µM (inactive) | GI50 (MCF7): > 100 µM (inactive) | GI50 (PC-3): > 100 µM (inactive) | GI50 (SR): > 100 µM (inactive) | GI50 (TK-10): > 100 µM (inactive) | GI50 (A498): > 100 µM (inactive) | GI50 (A549): > 100 µM (inactive) | GI50 (Malme-3M): > 100 µM (inactive) | GI50 (RXF 393): > 100 µM (inactive) | GI50 (CCRF-CEM): > 100 µM (inactive) and 62.2 µM (inactive) | GI50 (SK-MEL-5): > 100 µM (inactive) | GI50 (MOLT-4): > 100 µM (inactive) | GI50 (786-0): > 100 µM (inactive) | GI50 (MDA-N): > 100 µM (inactive) | GI50 (NCI-H226): > 100 µM (inactive) | GI50 (ACHN): > 100 µM (inactive) | GI50 (LOX IMVI): > 100 µM (inactive) | GI50 (DU-145): > 100 µM (inactive) | GI50 (M14): > 100 µM (inactive) | GI50 (UO-31): > 100 µM (inactive) | GI50 (OVCAR-8): > 100 µM (inactive) | GI50 (OVCAR-5): > 100 µM (inactive) | GI50 (K562): > 100 µM (inactive) | GI50 (COLO 205): > 100 µM (inactive) | GI50 (Hs-578T): > 100 µM (inactive) | GI50 (RPMI-8226): > 100 µM (inactive) | GI50 (HOP-92): > 100 µM (inactive) | GI50 (UACC-62): > 100 µM (inactive) | GI50 (HCC 2998): > 100 µM (inactive)

CC(=O)SC(C[N+](=O)[O-])c1ccc2c(c1)OCO2 (configuration not stated)
GI50 (HCT-116): 2.31 µM (inactive) | GI50 (HCT-15): 3.32 µM | GI50 (SNB-75): 9.59 µM (inactive) | GI50 (UACC-257): 9.1 µM (inactive) | GI50 (SW-620): 3.24 µM (inactive) | GI50 (NCI-H522): 5.22 µM (inactive) | GI50 (MDA-MB-231): 7.45 µM (inactive) | GI50 (SNB-19): 9.31 µM (inactive) | GI50 (SK-OV-3): 7.24 µM (inactive) | GI50 (T47D): 17.1 µM (inactive) | GI50 (SK-MEL-28): 3.15 µM (inactive) | GI50 (SF-539): 2.37 µM (inactive) | GI50 (NCI-H23): 5.89 µM (inactive) | GI50 (EKVX): 21.4 µM (inactive) | GI50 (OVCAR-3): 8.24 µM (inactive) | GI50 (IGROV-1): 5.2 µM (inactive) | GI50 (SF-268): 15.9 µM (inactive) | GI50 (HOP-62): 17.4 µM (inactive) | GI50 (BT-549): 6.17 µM (inactive) | GI50 (CAKI-1): 6.56 µM (inactive) | GI50 (OVCAR-4): 13.6 µM (inactive) | GI50 (SF-295): 10.9 µM (inactive) | GI50 (SN12C): 5.73 µM (inactive) | GI50 (U-251): 5.37 µM (inactive) | GI50 (SK-MEL-2): 6.19 µM (inactive) | GI50 (NCI/ADR-RES): 11.6 µM (inactive) | GI50 (NCI-H460): 11.2 µM (inactive) | GI50 (HT-29): 2.49 µM (inactive) | GI50 (MDA-MB-435): 3.54 µM (inactive) | GI50 (KM12): 4.75 µM (inactive) | GI50 (HL-60): 1.97 µM (inactive) | GI50 (MCF7): 3 µM (inactive) | GI50 (PC-3): 12.7 µM (inactive) | GI50 (SR): 2.5 µM (inactive) | GI50 (TK-10): 14.4 µM (inactive) | GI50 (A498): 3.02 µM (inactive) | GI50 (A549): 14.2 µM (inactive) | GI50 (Malme-3M): 8.11 µM (inactive) | GI50 (RXF 393): 1.9 µM (inactive) | GI50 (CCRF-CEM): 4.8 µM (inactive) | GI50 (SK-MEL-5): 6.95 µM (inactive) | GI50 (MOLT-4): 2.98 µM (inactive) | GI50 (786-0): 3.64 µM (inactive) | GI50 (MDA-N): 2.1 µM (inactive) | GI50 (NCI-H226): 18.7 µM (inactive) | GI50 (ACHN): 8.81 µM (inactive) | GI50 (LOX IMVI): 1.81 µM (inactive) | GI50 (DU-145): 11 µM (inactive) | GI50 (M14): 5.9 µM (inactive) | GI50 (UO-31): 5.46 µM (inactive) | GI50 (OVCAR-8): 13.6 µM (inactive) | GI50 (OVCAR-5): 7.83 µM (inactive) | GI50 (K562): 3.38 µM (inactive) | GI50 (COLO 205): 6.37 µM (inactive) | GI50 (Hs-578T): 12.9 µM (inactive) | GI50 (RPMI-8226): 1.39 µM (inactive) | GI50 (HOP-92): 12 µM (inactive) | GI50 (UACC-62): 5.62 µM (inactive) | GI50 (HCC 2998): 1.73 µM (inactive)

N#CC1=C(N)OC2=C(CCCc3ccccc32)C1c1ccc([N+](=O)[O-])cc1 (configuration not stated)
GI50 (HCT-116): 12.8 µM (inactive) | GI50 (HCT-15): 12.2 µM | GI50 (SNB-75): 55 µM (inactive) | GI50 (UACC-257): 14.8 µM (inactive) | GI50 (SW-620): 13.6 µM (inactive) | GI50 (NCI-H522): 8.22 µM (inactive) | GI50 (MDA-MB-231): 26.9 µM (inactive) | GI50 (SNB-19): 17.3 µM (inactive) | GI50 (SK-OV-3): 30.9 µM (inactive) | GI50 (T47D): 8.18 µM (inactive) | GI50 (SK-MEL-28): 15.8 µM (inactive) | GI50 (SF-539): 19.2 µM (inactive) | GI50 (NCI-H23): 15.2 µM (inactive) | GI50 (EKVX): 13.8 µM (inactive) | GI50 (OVCAR-3): 13.5 µM (inactive) | GI50 (IGROV-1): 19.2 µM (inactive) | GI50 (SF-268): 15.1 µM (inactive) | GI50 (HOP-62): 17.2 µM (inactive) | GI50 (BT-549): 2.91 µM (inactive) | GI50 (CAKI-1): 29.6 µM (inactive) | GI50 (OVCAR-4): 15.8 µM (inactive) | GI50 (SF-295): 14.9 µM (inactive) | GI50 (SN12C): 15.1 µM (inactive) | GI50 (U-251): 15.5 µM (inactive) | GI50 (SK-MEL-2): 17.9 µM (inactive) | GI50 (NCI/ADR-RES): 11.9 µM (inactive) | GI50 (NCI-H460): 17.7 µM (inactive) | GI50 (HT-29): 12.2 µM (inactive) | GI50 (MDA-MB-435): 15.9 µM (inactive) | GI50 (KM12): 16.1 µM (inactive) | GI50 (HL-60): 5.93 µM (inactive) | GI50 (MCF7): 16.7 µM (inactive) | GI50 (PC-3): 17.1 µM (inactive) | GI50 (SR): 10.9 µM (inactive) | GI50 (TK-10): 28.8 µM (inactive) | GI50 (A498): 12 µM (inactive) | GI50 (A549): 19 µM (inactive) | GI50 (Malme-3M): 16.3 µM (inactive) | GI50 (RXF 393): 13.2 µM (inactive) | GI50 (CCRF-CEM): 4.52 µM (inactive) | GI50 (SK-MEL-5): 14.3 µM (inactive) | GI50 (MOLT-4): 0.336 µM (active) | GI50 (786-0): 18.1 µM (inactive) | GI50 (MDA-N): 15.9 µM (inactive) | GI50 (NCI-H226): 24.7 µM (inactive) | GI50 (ACHN): 17.9 µM (inactive) | GI50 (LOX IMVI): 19.1 µM (inactive) | GI50 (DU-145): 10.1 µM (inactive) | GI50 (M14): 13.6 µM (inactive) | GI50 (UO-31): 11.8 µM (inactive) | GI50 (OVCAR-8): 17.9 µM (inactive) | GI50 (OVCAR-5): 21.8 µM (inactive) | GI50 (K562): 2.07 µM (inactive) | GI50 (COLO 205): 16.1 µM (inactive) | GI50 (Hs-578T): 36.5 µM (inactive) | GI50 (RPMI-8226): 1.85 µM (inactive) | GI50 (HOP-92): 19.1 µM (inactive) | GI50 (UACC-62): 11.2 µM (inactive) | GI50 (HCC 2998): 13.6 µM (inactive)
